Experimental data taken from the NIST ThermoML archive (doi:10.1016/j.jct.2016.05.019).
Values joined by “and” are separate entries in the source; they are usually repeats but may differ in a detail not shown here. Equal entries are not always repeated.

Settings: Liquid; for mass density: Bellows volumetry

CCC(C)C [2-methylbutane]
Settings	mass density
360 K, 70000 kPa	638.43 kg/m3
360 K, 80000 kPa	645.89 kg/m3
360 K, 90000 kPa	652.93 kg/m3
360 K, 100000 kPa	659.45 kg/m3
360 K, 120000 kPa	671.11 kg/m3
360 K, 140000 kPa	681.34 kg/m3
360 K, 160000 kPa	691.16 kg/m3
360 K, 180000 kPa	699.47 kg/m3
360 K, 200000 kPa	708.18 kg/m3
368.12 K, 98070 kPa	653.72 kg/m3
368.12 K, 147100 kPa	681.34 kg/m3
368.12 K, 196130 kPa	703.04 kg/m3
380 K, 846 kPa	518.39 kg/m3
380 K, 857 kPa	518.44 kg/m3
380 K, 962 kPa	518.87 kg/m3
380 K, 1000 kPa	518.39 kg/m3
380 K, 1001 kPa	519.03 kg/m3
380 K, 2000 kPa	522.38 kg/m3
380 K, 3000 kPa	526.02 kg/m3
380 K, 5000 kPa	532.71 kg/m3
380 K, 10000 kPa	546.59 kg/m3
380 K, 20000 kPa	567.43 kg/m3
380 K, 30000 kPa	583.41 kg/m3
380 K, 40000 kPa	596.53 kg/m3
380 K, 50000 kPa	607.73 kg/m3
380 K, 60000 kPa	617.61 kg/m3
380 K, 70000 kPa	626.4 kg/m3
380 K, 80000 kPa	634.41 kg/m3
380 K, 90000 kPa	641.88 kg/m3
380 K, 100000 kPa	648.74 kg/m3
380 K, 120000 kPa	661.13 kg/m3
380 K, 140000 kPa	672.14 kg/m3
380 K, 160000 kPa	682.07 kg/m3
380 K, 180000 kPa	691.12 kg/m3
380 K, 200000 kPa	699.6 kg/m3
400 K, 1250 kPa	487.6 kg/m3
400 K, 1309 kPa	487.97 kg/m3
400 K, 1506 kPa	489.2 kg/m3
400 K, 1611 kPa	489.83 kg/m3
400 K, 2000 kPa	491.59 kg/m3 and 492.12 kg/m3
400 K, 3000 kPa	497.03 kg/m3
400 K, 5000 kPa	506.33 kg/m3
400 K, 10000 kPa	524.35 kg/m3
400 K, 20000 kPa	549.47 kg/m3
400 K, 30000 kPa	567.78 kg/m3
400 K, 40000 kPa	582.37 kg/m3
400 K, 50000 kPa	594.58 kg/m3
400 K, 60000 kPa	605.35 kg/m3
400 K, 70000 kPa	614.87 kg/m3
400 K, 80000 kPa	623.43 kg/m3
400 K, 90000 kPa	631.33 kg/m3
400 K, 100000 kPa	638.47 kg/m3
400 K, 120000 kPa	651.4 kg/m3
400 K, 140000 kPa	662.94 kg/m3
400 K, 160000 kPa	673.54 kg/m3
400 K, 180000 kPa	682.87 kg/m3
400 K, 200000 kPa	691.58 kg/m3
410 K, 1519 kPa	470.27 kg/m3
410 K, 1623 kPa	471.11 kg/m3
410 K, 2000 kPa	474.02 kg/m3
420 K, 1789 kPa	450.66 kg/m3
420 K, 1800 kPa	450.78 kg/m3
420 K, 1904 kPa	451.92 kg/m3
420 K, 2000 kPa	452.61 kg/m3 and 452.93 kg/m3
420 K, 3000 kPa	461.88 kg/m3
420 K, 5000 kPa	476.16 kg/m3
420 K, 10000 kPa	500.48 kg/m3
420 K, 20000 kPa	530.77 kg/m3
420 K, 30000 kPa	551.51 kg/m3
420 K, 40000 kPa	567.85 kg/m3
420 K, 50000 kPa	581.15 kg/m3
420 K, 60000 kPa	592.84 kg/m3
420 K, 70000 kPa	602.84 kg/m3
420 K, 80000 kPa	612.1 kg/m3
420 K, 90000 kPa	620.5 kg/m3
420 K, 100000 kPa	628.24 kg/m3
420 K, 120000 kPa	641.97 kg/m3
420 K, 140000 kPa	653.97 kg/m3
420 K, 160000 kPa	664.82 kg/m3
420 K, 180000 kPa	674.63 kg/m3
420 K, 200000 kPa	683.74 kg/m3
440 K, 3000 kPa	412.99 kg/m3
440 K, 5000 kPa	439.7 kg/m3
440 K, 10000 kPa	474.4 kg/m3
440 K, 20000 kPa	511.64 kg/m3
440 K, 30000 kPa	535.46 kg/m3
440 K, 40000 kPa	553.42 kg/m3
440 K, 50000 kPa	568.08 kg/m3
440 K, 60000 kPa	580.59 kg/m3
440 K, 70000 kPa	591.44 kg/m3
440 K, 80000 kPa	601.22 kg/m3
440 K, 90000 kPa	610.1 kg/m3
440 K, 100000 kPa	618.08 kg/m3
440 K, 120000 kPa	632.51 kg/m3
440 K, 140000 kPa	645.06 kg/m3
440 K, 160000 kPa	656.44 kg/m3
440 K, 180000 kPa	666.6 kg/m3
440 K, 200000 kPa	676.01 kg/m3

Settings	mass density [kg/m3]	vapor or sublimation pressure [kPa]
360 K	544.8	538
380 K	518.31	835
400 K	487.34	1238
410 K	469.93	1487
420 K	450.21	1772
